Assay results as given in patent EP3613735A1, “NOVEL SIRT 1 ACTIVATOR AND MEDICINAL USE THEREOF” (Pusan National University Industry - University Cooperation …, priority 2017, dated 2018).

Columns and labels:
db/db mice [1] = assay: Neutral fat in the liver (fatty liver) in obese animal model; assay type: in vivo, mouse; settings: oral 5 mg/kg daily for 4 weeks
Procedure: Since obesity and insulin resistance are representative diseases directly related to the development of non-alcoholic fatty liver, the improvement effect of Compound 32u on fatty liver was analyzed. Compound 32u was orally administered to db/db mice (9 weeks old) at a concentration of 5 mg/kg daily for 4 weeks. First, the accumulation of fat in the liver, the most representative phenotype, was measured. Briefly, about 50 mg of liver was quantified in cold phosphate buffered saline (PBS) or 0.9% sodium chloride (NaCl) and crushed, followed by treating with mixed solvent of chloroform and methanol (MeOH) in a volume ratio of 2:1 and reacted for 2 hours. […] Thereafter, the amount of neutral fat was measured by absorbance using a neutral fat measurement kit (Stanbio laboratory, TX USA). Since obesity and insulin resistance are representative diseases directly related to the development of non-alcoholic fatty liver, the improvement effect of Compound 70c on fatty liver was analyzed. […] First, the accumulation of fat in the liver, the most representative phenotype, was measured. Briefly, about 50 mg of liver was quantified in cold phosphate buffered saline (PBS) or 0.9% sodium chloride (NaCl) and crushed, followed by treating with mixed solvent of chloroform and methanol (MeOH) in a volume ratio of 2:1 and reacted for 2 hours. […]

db/db mice [2] = assay: Dietary intake and weight in obese animal model; assay type: in vivo, mouse; settings: oral 5 mg/kg daily for 4 weeks, compared to db/db mice group
Procedure: The metabolic disease control ability of Compound 32u was analyzed using db/db mice lacking an appetite-regulating hormone leptin receptor as an obese animal model. Compound 32u was orally administered to db/db mice (9 weeks old) at a concentration of 5 mg/kg daily for 4 weeks. The metabolic disease control ability of Compound 70c was analyzed using db/db mice lacking an appetite-regulating hormone leptin receptor as an obese animal model. Compound 70c was orally administered to db/db mice (9 weeks old) at a concentration of 5 mg/kg daily for 4 weeks.

db/db mice [3] = assay: Glucose tolerance test and fasting blood glucose in obese animal model; assay type: in vivo, mouse; settings: for fasting blood glucose: oral 5 mg/kg daily, compared to db/db mouse group; for glucose tolerance (blood glucose concentration): three weeks after oral administration of 5 mg/kg daily, glucose 2 g/kg intraperitoneally after 12 hours fasting
Procedure: The metabolic disease control ability of Compound 32u was analyzed using db/db mice lacking an appetite-regulating hormone leptin receptor as an obese animal model. Compound 32u was orally administered to db/db mice (9 weeks old) at a concentration of 5 mg/kg daily for 4 weeks. Three weeks after oral administration of Compound 32u, a glucose tolerance test was performed. Mice were fasted for 12 hours or more, and glucose (2 g/kg) was injected intraperitoneally, and blood from the tail of the mouse was measured for blood glucose at each time using a glucometer ([…]). The metabolic disease control ability of Compound 70c was analyzed using db/db mice lacking an appetite-regulating hormone leptin receptor as an obese animal model. Compound 70c was orally administered to db/db mice (9 weeks old) at a concentration of 5 mg/kg daily for 4 weeks. Three weeks after oral administration of Compound 70c, a glucose tolerance test was performed. Mice were fasted for 12 hours or more, and glucose (2 g/kg) was injected intraperitoneally, and blood from the tail of the mouse was measured for blood glucose at each time using a glucometer ([…]).

CPT1 and ACOX1 = assay: Liver mRNA expression of fat oxidation related genes, quantitative real-time PCR; assay type: in vivo, mouse; settings: db/db mice, oral 5 mg/kg daily for 4 weeks, treated vs db/db group
Procedure: Since obesity and insulin resistance are representative diseases directly related to the development of non-alcoholic fatty liver, the improvement effect of Compound 32u on fatty liver was analyzed. Compound 32u was orally administered to db/db mice (9 weeks old) at a concentration of 5 mg/kg daily for 4 weeks. First, the accumulation of fat in the liver, the most representative phenotype, was measured. Briefly, about 50 mg of liver was quantified in cold phosphate buffered saline (PBS) or 0.9% sodium chloride (NaCl) and crushed, followed by treating with mixed solvent of chloroform and methanol (MeOH) in a volume ratio of 2:1 and reacted for 2 hours. […] Thereafter, the amount of neutral fat was measured by absorbance using a neutral fat measurement kit (Stanbio laboratory, TX USA). In order to confirm the corresponding mechanism, mRNA expression of genes related to fat synthesis and degradation was analyzed. […] For the synthesized cDNA, a quantative real-time polymerase chain reaction (quantative real-time PCR) was performed to target the desired gene as a primer and quantify it in real time. Since obesity and insulin resistance are representative diseases directly related to the development of non-alcoholic fatty liver, the improvement effect of Compound 70c on fatty liver was analyzed. […] First, the accumulation of fat in the liver, the most representative phenotype, was measured. […]

db/db mice [4] = assay: Serum insulin by ELISA in obese animal model; assay type: in vivo; settings: oral 5 mg/kg daily, compared with db/db mouse group
Procedure: The metabolic disease control ability of Compound 32u was analyzed using db/db mice lacking an appetite-regulating hormone leptin receptor as an obese animal model. Compound 32u was orally administered to db/db mice (9 weeks old) at a concentration of 5 mg/kg daily for 4 weeks. Next, the blood insulin concentration was measured using an enzyme-linked immunosorbent assay (ELISA). Mouse insulin ELISA (TMB) kit ([…], Japan) was used, and serum separated from animal blood was added to a 96 well plate coated with insulin primary antibody and after reacting, the secondary antibody and the substrate were added, reacted and the changed color was measured by an absorbance meter. The metabolic disease control ability of Compound 70c was analyzed using db/db mice lacking an appetite-regulating hormone leptin receptor as an obese animal model. Compound 70c was orally administered to db/db mice (9 weeks old) at a concentration of 5 mg/kg daily for 4 weeks. Next, the blood insulin concentration was measured using an enzyme-linked immunosorbent assay (ELISA). Mouse insulin ELISA (TMB) kit ([…], Japan) was used, and serum separated from animal blood was added to a 96 well plate coated with insulin primary antibody and after reacting, the secondary antibody and the substrate were added, reacted and the changed color was measured by an absorbance meter.

Row | SMILES | neutral fat in the liver (db/db mice [1]) | dietary intake (db/db mice [2]) | weight (db/db mice [2]) | fasting blood glucose (db/db mice [3]) | glucose tolerance (blood glucose concentration) (db/db mice [3]) | expression of fat oxidation related genes (CPT1 and ACOX1) (CPT1 and ACOX1) | serum insulin concentration (db/db mice [4])
1 | O=C(Nc1ccccc1-c1nc2cc(CN3CCN(C4CCCCC4)CC3)ccc2o1)c1ccc2ccccc2c1 [Compound 70c, N-(2-(5-((4-Cyclohexylpiperazin-1-yl)methyl)benzo[d]oxazol-2-yl)phenyl)-2-naphthamide] | reduced neutral fat | no difference | no difference | reduced | glucose tolerance was restored | not significantly different | reduced
2 | Cl.O=C(Nc1ccccc1-c1cc2ccc(CN3CCNCC3)cc2o1)c1ccc2ccccc2c1 [Compound 32u, N-(2-(6-(Piperazin-1-ylmethyl)benzofuran-2-yl)phenyl)-2-naphthamide hydrochloride] | reduced neutral fat | no difference | no difference | reduced | glucose tolerance was restored | not significantly different | reduced
